A word on the Kd: it is the constant that tells how readily two partners part at equilibrium.

Series [1] concerns R15B-PP1c holophosphatase (R15B^340-698-PP1c). As to the kind of experiment: Holophosphatase SPR, compounds binding to reconstituted R15B-PP1c. Set-up: species or system human. Conditions: ratio of SPR KD values. Here is the method: (§1) Small molecules were stored as 50 mM stock solutions in 100% DMSO. […] If necessary the concentration range was adjusted to accurately determine the KD depending on the initial results. […] This was followed by 1 min stabilization period, to wash off any unspecific binding. […] After each dilution series, the surface was regenerated using 3 M NaCl for 90 s. […] In order to be able to correct for small variations in DMSO concentration between samples, eight solvent samples ranging from 0.06 to 8% DMSO were injected every 50th cycle. The flow cell temperature was 20°C.

For series [2], the target named is T1, R15B-PP1c holophosphatase (R15B^340-698-PP1c) (Homo sapiens, UniProt Q5SWA1).
T1 construct: cDNAs encoding amino acids 325-636 of R15A and 340-698 of R15B were cloned into pMAL-c5x; made in house; host or cells: R15B: E. coli BL21-Gold (DE3) pLysS; bio-PP1c: Sf9 insect cells (baculovirus)
The description is as above. Conditions: holophosphatase reconstituted on SA chip; 20°C; mean ± SD; read-out: KD, steady-state affinity for R15B-PP1c. How it is done: as §1

Series [3] has as its target T2, R15B-PP1c (Homo sapiens, UniProt Q5SWA1).
T2 construct: cDNAs encoding amino acids 325-636 of R15A and 340-698 of R15B were cloned into pMAL-c5x; made in house; host or cells: E. coli (R15 and eIF2α: BL21-Gold (DE3) pLysS; PP1: BL21/pGro7)
As to the kind of experiment: Selective holophosphatase activity assay, eIF2α dephosphorylation by R15B-PP1c. Type of series: biochemical. To be noted: Raphin1 100 μM, 30°C, 16 hr. Here is the method:
The assay was performed as previously described ([Carrara et al., 2017]). Dephosphorylation experiments were carried out in dephosphorylation buffer (50 mM Tris pH 7.4, 1.5 mM EGTA pH 8.0, 2 mM MnCl2), and all proteins were diluted to the appropriate concentration in dephosphorylation buffer. PP1c was diluted to 10 nM, R15s were diluted to 50 nM and P-eIF2α was diluted to 1 μM. Proteins were mixed as appropriate, and Raphin1 at 100 μM or DMSO vehicle control were added. Reactions were incubated at 30°C for 16 hr. 4% SDS-Laemmli sample buffer was added to stop the reactions. Samples were loaded on 4%–12% NuPAGE Bis-Tris gels (ThermoFisher Scientific), diluted 1-fold, and analyzed by immunoblotting using anti-Phospho-eIF2α (Ser51) (Cell Signaling (#9721); […]) and total anti-eIF2α (AbCam (#ab26197); 1:1,000) antibodies.

Series [4] deals with T3, R15B (Homo sapiens, UniProt Q5SWA1).
T3 construct: cDNAs encoding amino acids 325-636 of R15A and 340-698 of R15B were cloned into pMAL-c5x; made in house; host or cells: E. coli BL21-Gold (DE3) pLysS
As to the kind of experiment: Limited trypsin digestion of R15B. To be noted: R15 3 μM, compound 100 μM, trypsin 5 nM, 5 min, 22°C. Here is the method:
Reactions were initiated by addition of 5 nM of trypsin from bovine pancreas (Sigma-Aldrich), made up in PBS, and allowed to proceed for 5 min at 22°C, with shaking at 350 rpm. […] Proteins were visualized by staining with InstantBlue Protein Stain (Expedeon).

Series [5] has as its target PP1c (Homo sapiens, UniProt P36873). As to the kind of experiment: SPR, compounds binding to PP1c alone immobilized on streptavidin chip. Set-up: cDNA encoding for human PP1cγ (aa 1-322) was cloned into two baculovirus transfer vectors; made in house; host or cells: Sf9 insect cells (baculovirus). Conditions: PP1c immobilized on SA chip. How it is done: as §1
A general note: Surface plasmon resonance follows binding to a sensor surface in real time, without labels.

For series [6], the system named is brains of wild-type mice. As to the kind of experiment: Monitoring translation rates in vivo, brains of wild-type mice. Set-up: species or system mouse. To be noted: 40 mg/kg. Here is the method:
3 months old treatment- and test-naive C57BL/6J males were treated as indicated. 30 min before the end of treatment mice were injected intraperitoneally with 0.75 mCi/kg radioactive label – 75% ^35S-methionine + 25% ^35S-cystine (Hartmann Analytic). At the end of treatment mice were culled by cervical dislocation, brains were extracted, fresh-frozen in liquid nitrogen and kept at −80°C until use. Tissue was homogenized and lysed in Laemmli Buffer (1 mL for 0.5 mg tissue). Lysates were boiled at 95°C for 5 min, sonicated and resolved on Bolt SDS-PAGE 4%–12% Bis-Tris gels (ThermoFisher Scientific). Gels were then stained with InstantBlue (Expedeon) and after the gels had been imaged they were transferred to a 20% ethanol, 7% acetic acid, 4% glycerol solution for 10 min. This was to prevent the gels from cracking while drying. The gels were transferred to filter paper and dried using a gel dryer. The gels were then exposed to a Storage Phosphor Screen (GE Healthcare) and analyzed by phosphorimaging using a Typhoon Imager Scanner (GE Healthcare).

Series [7] concerns wild-type mice. As to the kind of experiment: Fear conditioning. The series is classed as in vivo, mouse. Conditions: 2 mg/kg for 3 weeks. How it is done: Morris water maze and the following fear conditioning were performed on C57BL/6J wild-type males aged 2.5 months. Mice were treatment- and test-naive before the treatment started. Treatment with Raphin1 started two weeks before and was continued during the behavioral tests.
Testing was performed in polymodal operant chambers (Coulbourn Instruments, Allentown, PA, USA). Each chamber (18.5 × 18 × 21.5 cm) consisted of aluminum side walls and Plexiglas rear and front (the door) walls. A loudspeaker and a bright light constituted the sources of the cues during conditioning and cue-testing. The general activity of animals was recorded through the infrared cell placed at the ceiling of the chambers and was directly recorded using the Graphic State software (Coulbourn). For conditioning, mice were allowed to acclimate for 4 min, then a light/tone (10 kHz) – Conditioned Stimulus (CS) was presented for 20 s and co-terminated by a mild (1 s, 0.4 mA) footshock – an aversive Unconditioned Stimulus (US). Mice were returned to their home cages 2 min later. Testing was performed 24 hr following conditioning session. Testing for the context was performed in the morning. […] For both context and cue testing the percentage of time spent in the immobile position (% Freezing) was scored as an indicator of fear memory.

T3 sequence (Q5SWA1 340-698): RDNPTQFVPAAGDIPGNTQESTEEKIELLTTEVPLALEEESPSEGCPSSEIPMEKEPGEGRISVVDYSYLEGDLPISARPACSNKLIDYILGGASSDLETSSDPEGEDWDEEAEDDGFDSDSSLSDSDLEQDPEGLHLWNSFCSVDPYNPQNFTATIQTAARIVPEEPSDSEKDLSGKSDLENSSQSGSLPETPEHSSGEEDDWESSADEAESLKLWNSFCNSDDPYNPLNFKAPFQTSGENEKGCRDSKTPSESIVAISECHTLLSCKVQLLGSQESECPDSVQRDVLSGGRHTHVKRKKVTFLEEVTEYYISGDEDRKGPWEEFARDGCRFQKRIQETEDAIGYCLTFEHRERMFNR
T2 sequence (Q5SWA1 340-698): as above
T2 sequence (P62136 7-330 partner limits assumed): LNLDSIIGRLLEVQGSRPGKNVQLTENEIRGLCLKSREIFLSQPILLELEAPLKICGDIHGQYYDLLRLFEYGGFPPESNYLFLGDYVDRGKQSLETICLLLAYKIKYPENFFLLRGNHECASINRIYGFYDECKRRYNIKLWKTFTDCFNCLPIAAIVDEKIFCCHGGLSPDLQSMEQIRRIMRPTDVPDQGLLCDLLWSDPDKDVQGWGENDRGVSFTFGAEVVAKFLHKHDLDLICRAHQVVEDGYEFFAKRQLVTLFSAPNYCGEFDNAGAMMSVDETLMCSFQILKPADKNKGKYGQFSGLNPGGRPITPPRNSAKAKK
T1 sequence (Q5SWA1 340-698): as the sequence (Q5SWA1 340-698) above
T1 sequence (P36873 1-322 partner limits assumed): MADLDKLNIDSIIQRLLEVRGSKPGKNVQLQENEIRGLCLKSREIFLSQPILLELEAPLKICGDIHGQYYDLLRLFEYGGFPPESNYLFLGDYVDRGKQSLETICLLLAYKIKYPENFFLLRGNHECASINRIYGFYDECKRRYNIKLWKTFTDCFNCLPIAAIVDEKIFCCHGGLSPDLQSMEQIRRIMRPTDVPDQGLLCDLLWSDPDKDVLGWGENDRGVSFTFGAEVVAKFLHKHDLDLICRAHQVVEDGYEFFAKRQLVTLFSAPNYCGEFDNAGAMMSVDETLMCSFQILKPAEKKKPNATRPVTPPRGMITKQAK
PP1c, sequence (P36873 1-322): as the sequence (P36873 1-322 partner limits assumed) above

For `[H]/N=C(\N)NN=Cc1cccc(Cl)c1Cl` [Raphin1, (E)-2-(2,3-dichlorobenzylidene)hydrazine-1-carboximidamide], the “Selectivity in binding R15B-PP1c over R15A-PP1c” value in series [1] is roughly 30 fold. Also, in series [2], the Kd turned out to be 33 ± 20 nM. The “Dephosphorylation of eIF2α by R15B-PP1c” value in series [3] was “inhibited”. Moreover, in series [4], the “Protease sensitivity of R15B (limited proteolysis, conformational change)” value is “protected”. The “Binding to PP1c alone (in words)” value in series [5] is given as “did not bind”. In addition, the “Time of translation recovery after administration” value in series [6] (wild-type brains) was roughly 6 h. In addition, the “Protein synthesis in the brains (in words)” value in series [6] (wild-type mice) is “transiently reduced”. For the same compound, the “Adverse effects on memory, fear-conditioning paradigm” value in series [7] is on record as “no adverse effects”.
